Among the data in patent US10093660B2, “Sulfoximine substituted quinazolines for pharmaceutical compositions” (EVOTEC INTERNATIONAL GMBH, priority 2013, dated 2018) are IC50 and inhibition values, retold here.

Broadly, the IC50 is the concentration at which inhibition is half-maximal.

Chain of MNK2a (Q9HBH9 whole entry): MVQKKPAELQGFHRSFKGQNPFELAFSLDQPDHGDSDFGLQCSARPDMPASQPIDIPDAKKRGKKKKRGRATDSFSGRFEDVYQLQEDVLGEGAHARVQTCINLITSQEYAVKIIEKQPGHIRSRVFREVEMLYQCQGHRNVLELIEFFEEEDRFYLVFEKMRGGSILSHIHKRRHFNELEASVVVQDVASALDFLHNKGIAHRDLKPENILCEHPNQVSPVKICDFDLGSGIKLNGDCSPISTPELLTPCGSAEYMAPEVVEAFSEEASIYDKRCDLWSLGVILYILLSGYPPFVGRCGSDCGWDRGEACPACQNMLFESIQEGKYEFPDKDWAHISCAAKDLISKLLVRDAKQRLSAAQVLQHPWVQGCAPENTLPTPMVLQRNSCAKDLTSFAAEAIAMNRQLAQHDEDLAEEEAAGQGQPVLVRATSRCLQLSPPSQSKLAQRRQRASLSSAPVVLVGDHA

One assay addresses MNK2a (Homo sapiens (Human), UniProt Q9HBH9). Put plainly: MNK2a in vitro kinase assay (Assay 2), ADP-Glo. The format is biochemical. As to conditions: assay 2; read-out: MNK2 IC50. The source says: B. MNK2a In Vitro Kinase Assay (Assay 2)
(In general: ADP-Glo first removes unused ATP, then detects ADP through luciferase.)
With `Cc1cc(N=S2(=O)CCCC2)cc2ncnc(Nc3ccc(F)cc3O[C@@H]3COC[C@@H]3O)c12` (single isomer, unassigned) [Example 14.5], the half-maximal inhibitory concentration (IC50) was 3 nM.

For the molecule `Cc1cc(N=S2(=O)CCCC2)cc2ncnc(Nc3ccc(F)cc3O[C@H]3COC[C@H]3O)c12` (single isomer, unassigned) [Example 14.6], the half-inhibitory concentration (IC50) amounted to 2 nM.

Regarding `O=S1(=Nc2cc(Cl)c3c(Nc4ccc(F)cc4O[C@@H]4COC[C@@H]4O)ncnc3c2)CCCC1` (single isomer, unassigned) [Example 14.9], the IC50 is 3 nM.

Consider `O=S1(=Nc2cc(Cl)c3c(Nc4ccc(F)cc4O[C@H]4COC[C@H]4O)ncnc3c2)CCCC1` (single isomer, unassigned) [Example 14.10], for which the half-maximal inhibitory concentration (IC50) came to 2 nM.

For `CC[S@](C)(=O)=Nc1cc(C)c2c(Nc3ccc(F)cc3O[C@H]3COC[C@@H]3O)ncnc2c1` (single isomer, unassigned) [Example 14.11], the half-maximal inhibitory concentration (IC50) was found to be 4 nM.

On to `CC[S@@](C)(=O)=Nc1cc(C)c2c(Nc3ccc(F)cc3O[C@H]3COC[C@@H]3O)ncnc2c1` (single isomer, unassigned) [Example 14.12], for which the IC50 is 15 nM.

As for `Cc1cc(N=S2(=O)CCCC2)cc2ncnc(Nc3ccc(F)cc3O[C@H]3COC[C@H]3C#N)c12` [Example 1.1], the IC50 stood at 9 nM.

With `Cc1cc(N=S(C)(C)=O)cc2ncnc(Nc3ccc(F)cc3O[C@H]3COC[C@H]3C#N)c12` [Example 1.2], the IC50 is 19 nM.

With `O=S1(=Nc2cc(Cl)c3c(Nc4ccc(F)cc4O[C@H]4COC[C@@H]4O)ncnc3c2)CCC1` [Example 1.7], the 50% inhibitory concentration (IC50) turned out to be 2 nM.

For `O=S1(=Nc2cc(Cl)c3c(Nc4ccc(F)cc4O[C@H]4COC[C@@H]4O)ncnc3c2)CCCC1` [Example 1.9], the IC50 amounted to 2 nM.

As to `CS(C)(=O)=Nc1cc(OC(F)F)c2c(Nc3ccc(F)cc3O[C@H]3COC[C@@H]3O)ncnc2c1` [Example 1.11], the 50% inhibitory concentration (IC50) came to 32 nM.

For the molecule `CS(C)(=O)=Nc1cc(C(F)(F)F)c2c(Nc3ccc(F)cc3O[C@H]3COC[C@@H]3O)ncnc2c1` [Example 1.12], the IC50 amounted to 4 nM.

`O=S1(=Nc2cc(Cl)c3c(Nc4cccnc4O[C@H]4COC[C@@H]4O)ncnc3c2)CCC1` [Example 1.13]: the IC50 came out at 4 nM.

For `CS(C)(=O)=Nc1cc(Cl)c2c(Nc3cccnc3O[C@H]3COC[C@@H]3O)ncnc2c1` [Example 1.14], the IC50 came to 5 nM.

Consider `O=S1(=Nc2cc(Cl)c3c(Nc4cccnc4O[C@H]4COC[C@@H]4O)ncnc3c2)CCCC1` [Example 1.15], for which the IC50 is 3 nM.

Consider `O=S1(=Nc2cc(Cl)c3c(Nc4ccc(Cl)nc4O[C@H]4COC[C@@H]4O)ncnc3c2)CCC1` [Example 1.16], for which the half-maximal inhibitory concentration (IC50) came to 2 nM.

On to `O=S1(=Nc2cc(Cl)c3c(Nc4ccc(Cl)nc4O[C@H]4COC[C@@H]4O)ncnc3c2)CCCC1` [Example 1.17], for which the IC50 came to 2 nM.

For another assay, the target named is MNK1a (Homo sapiens (Human), UniProt Q9BUB5). Put plainly: MNK1 in vitro kinase assay (Assay 3), Z'-LYTE. The format is biochemical.
Chain of MNK1a (Q9BUB5 other isoform, or with tags, fused parts or gaps): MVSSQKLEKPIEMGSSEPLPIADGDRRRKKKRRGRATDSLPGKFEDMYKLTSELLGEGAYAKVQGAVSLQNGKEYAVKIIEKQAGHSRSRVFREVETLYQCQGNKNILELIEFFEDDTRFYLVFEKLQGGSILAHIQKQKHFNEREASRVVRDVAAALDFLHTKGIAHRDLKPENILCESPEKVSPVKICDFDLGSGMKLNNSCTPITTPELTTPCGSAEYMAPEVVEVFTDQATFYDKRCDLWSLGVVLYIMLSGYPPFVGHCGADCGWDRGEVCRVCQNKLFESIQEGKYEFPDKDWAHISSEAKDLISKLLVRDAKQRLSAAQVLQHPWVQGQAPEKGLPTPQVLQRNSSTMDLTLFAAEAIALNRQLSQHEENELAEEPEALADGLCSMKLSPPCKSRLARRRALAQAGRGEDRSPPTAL
Details: not given
The source says:
C. MNK1 In Vitro Kinase Assay (Assay 3)
MNK1 Data can be obtained from the MNK1 Z′-LYTE® assay. The MNK1 Z′-LYTE® screening protocol and assay conditions are also described on www.invitrogen.com.
The assay is described as follows:
The Z′-LYTE® biochemical assay employs a fluorescence-based, coupled-enzyme format and is based on the differential sensitivity of phosphorylated and non-phosphorylated peptides to proteolytic cleavage. The peptide substrate is labeled with two fluorophores—one at each end—that make up a FRET pair.
In the primary reaction, the kinase transfers the gamma-phosphate of ATP to a single tyrosine, serine or threonine residue in a synthetic FRET-peptide. In the secondary reaction, a site-specific protease recognizes and cleaves non-phosphorylated FRET-peptides. Phosphorylation of FRET-peptides suppresses cleavage by the Development Reagent. Cleavage disrupts FRET between the donor (i.e., coumarin) and acceptor (i.e., fluorescein) fluorophores on the FRET-peptide, whereas uncleaved, phosphorylated FRET-peptides maintain FRET. A ratiometric method, which calculates the ratio (the Emission Ratio) of donor emission to acceptor emission after excitation of the donor fluorophore at 400 nm, is used to quantitate reaction progress, as shown in the equation below.
The 2×MKNK1 (MNK1) mixture is prepared in 50 mM HEPES pH 7.5, 0.01% BRIJ-35, 10 mM MgCl2, 4 mM MnCl2, 1 mM EGTA, 2 mM DTT.
The Test Compounds are screened in 1% DMSO (final) in the well.
All Peptide/Kinase Mixtures are diluted to a 2× working concentration in the MNK1 Kinase Buffer.
All ATP Solutions are diluted to a 4× working concentration in Kinase Buffer (50 mM HEPES pH 7.5, 0.01% BRIJ-35, 10 mM MgCl2, 1 mM EGTA).
Development Reagent Solution:
The Development Reagent is diluted in Development Buffer
1. 2.5 μL—4× Test Compound
2. 5 μL—2× Peptide/Kinase Mixture
5. 60-minute Kinase Reaction incubation at room temperature
6. 5 μL—Development Reagent Solution
8. 60-minute Development Reaction incubation at room temperature
9. Read on fluorescence plate reader and analyze the data
Control C0%=Average Coumarin emission signal of the 0% Phos. Control F100%=Average Fluorescein emission signal of the 100% Phos. Control F0%=Average Fluorescein emission signal of the 0% Phos. Control Graphing Software
SelectScreen® Kinase Profiling Service uses XLfit from IDBS. […] The activity of MNK proteins can be assayed also by other in vitro kinase assay formats. […] In general, MNK kinase assays can be performed such that a MNK substrate such as a protein or a peptide, which may or may not include modifications as further described below, or others are phosphorylated by MNK proteins having enzymatic activity in vitro. The activity of a candidate agent can then be determined via its ability to decrease the enzymatic activity of the MNK protein. The kinase activity may be detected by change of the chemical, physical or immunological properties of the substrate due to phosphorylation.
`Cc1cc(N=S2(=O)CCCC2)cc2ncnc(Nc3ccc(F)cc3O[C@H]3COC[C@H]3C#N)c12` [Example 1.1] came in with an IC50 of 104 nM.

For `Cc1cc(N=S(C)(C)=O)cc2ncnc(Nc3ccc(F)cc3O[C@H]3COC[C@H]3C#N)c12` [Example 1.2], the half-maximal inhibitory concentration (IC50) amounted to 383 nM.

In the case of `O=S1(=Nc2cc(Cl)c3c(Nc4ccc(F)cc4O[C@H]4COC[C@@H]4O)ncnc3c2)CCC1` [Example 1.7], the IC50 turned out to be 18 nM.

The molecule `O=S1(=Nc2cc(Cl)c3c(Nc4ccc(F)cc4O[C@H]4COC[C@@H]4O)ncnc3c2)CCCC1` [Example 1.9] yielded a half-maximal inhibitory concentration (IC50) of 28 nM.

Molecule `O=S1(=Nc2cc(Cl)c3c(Nc4cccnc4O[C@H]4COC[C@@H]4O)ncnc3c2)CCCC1` [Example 1.15] yielded a 50% inhibitory concentration (IC50) of 34 nM.

The assay is the same for the next values; noted with them: compound concentration of 1 μM, read-out: MNK1 % INH.
Regarding `Cc1cc(N=S2(=O)CCCC2)cc2ncnc(Nc3ccc(F)cc3O[C@@H]3COC[C@@H]3O)c12` (single isomer, unassigned) [Example 14.5], the inhibition at 1 µM is 99%.

`Cc1cc(N=S2(=O)CCCC2)cc2ncnc(Nc3ccc(F)cc3O[C@H]3COC[C@H]3O)c12` (single isomer, unassigned) [Example 14.6]: the inhibition at 1 µM was 101%.

In the case of `O=S1(=Nc2cc(Cl)c3c(Nc4ccc(F)cc4O[C@@H]4COC[C@@H]4O)ncnc3c2)CCCC1` (single isomer, unassigned) [Example 14.9], the inhibition at 1 µM turned out to be 100%.

In the case of `O=S1(=Nc2cc(Cl)c3c(Nc4ccc(F)cc4O[C@H]4COC[C@H]4O)ncnc3c2)CCCC1` (single isomer, unassigned) [Example 14.10], the inhibition at 1 µM amounted to 101%.

`CC[S@](C)(=O)=Nc1cc(C)c2c(Nc3ccc(F)cc3O[C@H]3COC[C@@H]3O)ncnc2c1` (single isomer, unassigned) [Example 14.11]: the inhibition at 1 µM worked out at 96%.

On to `CC[S@@](C)(=O)=Nc1cc(C)c2c(Nc3ccc(F)cc3O[C@H]3COC[C@@H]3O)ncnc2c1` (single isomer, unassigned) [Example 14.12], for which the inhibition at 1 µM was determined as 86%.

Turning to `O=S1(=Nc2cc(Cl)c3c(Nc4ccc(F)cc4O[C@H]4COC[C@@H]4O)ncnc3c2)CCCC1` [Example 1.9], the inhibition at 1 µM worked out at 98%.

For `CS(C)(=O)=Nc1cc(OC(F)F)c2c(Nc3ccc(F)cc3O[C@H]3COC[C@@H]3O)ncnc2c1` [Example 1.11], the inhibition at 1 µM amounted to 64%.

For `CS(C)(=O)=Nc1cc(C(F)(F)F)c2c(Nc3ccc(F)cc3O[C@H]3COC[C@@H]3O)ncnc2c1` [Example 1.12], the inhibition at 1 µM was 88%.

Turning to `O=S1(=Nc2cc(Cl)c3c(Nc4cccnc4O[C@H]4COC[C@@H]4O)ncnc3c2)CCC1` [Example 1.13], the inhibition at 1 µM amounted to 100%.

`CS(C)(=O)=Nc1cc(Cl)c2c(Nc3cccnc3O[C@H]3COC[C@@H]3O)ncnc2c1` [Example 1.14]: the inhibition at 1 µM was determined as 96%.

`O=S1(=Nc2cc(Cl)c3c(Nc4cccnc4O[C@H]4COC[C@@H]4O)ncnc3c2)CCCC1` [Example 1.15]: the inhibition at 1 µM was determined as 103%.

For `O=S1(=Nc2cc(Cl)c3c(Nc4ccc(Cl)nc4O[C@H]4COC[C@@H]4O)ncnc3c2)CCC1` [Example 1.16], the inhibition at 1 µM is 96%.

On to `O=S1(=Nc2cc(Cl)c3c(Nc4ccc(Cl)nc4O[C@H]4COC[C@@H]4O)ncnc3c2)CCCC1` [Example 1.17], for which the inhibition at 1 µM worked out at 103%.
